Assay results from patent publication US10758609B2, “Cross-reactive T-cell epitopes of HIV, SIV, and FIV for vaccines in humans and cats” (priority 2015, dated 2020).
Residues, ends and D or L forms follow the SMILES beside them.

Test system: CD8^+ T cells from HIV^+ subjects
Experiment: FACS-based intracellular staining (ICS) for cytolysin (perforin) and cytotoxins (GrzA, GrzB) in CD8+ T cells
Conditions: HIV+ human subjects; for Cyto: CD8+ T-cell cytotoxins (perforin, GrzA & B), frequency of responders: FIV epitope peptide; for Cyto (cytolysin/cytotoxin production), frequency of responders: FIV peptides
Protocol: The overlapping peptide pools of FIV and HIV-1 structural and enzyme proteins were used to stimulate the […] (PBMC) and the T cells from HIV^+ subjects as previously described for epitope mapping of HIV-1 and FIV p24 and reverse transcriptase (RT) (Sanou et al., 2013; Roff et al., 2015). The individual peptides in those peptide pools with positive responses to either interferon-γ (IFNγ) production and/or T-cell proliferation were determined with IFNγ ELISpot analysis and CFSE-based CD3^+CD4^+ and CD3^+CD8^+ T-cell proliferation analyses followed by the FACS-based intracellular staining (ICS) for cytolysin (perforin) and cytotoxin (granzyme A [GrzA] and GrzB) (Sanou et al., 2013; Roff et al., 2015). Besides viral p24 and RT proteins, the identical approach was used to identify anti-HIV/FIV T-cell epitopes on viral matrix (MA), nucleocapsid (NC), protease (PR), RNAase, integrase (IN), surface envelope (SU Env), and transmembrane envelope (TM Env) (FIG. 12).
Since our goal is to develop HIV vaccine for human use, the HIV peptides (Table 10) counterpart of the cross-reactive FIV peptides shown in Table 9 were tested with PBMC and T cells from HIV^+ subjects. The immune functions analyzed were human IFNγ production by ELISpot, cytolysin/cytotoxin production by ICS, and CFSE-based proliferation of CD3^+CD4^+ and CD3^+CD8^+ T cells from HIV^+ subjects (Table 10, the first set of results). In addition, the Los Alamos National Laboratories (LANL) database was used to identify the HLA allele(s) of the HIV epitope sequence with CTL activity that can exist within the sequence of the conserved counterpart HIV peptide (Table 9, LANL CTL). The bold HLA class-I supertypes and the bold 2-digit alleles are those on the “Optimal CD8^+ CTL Epitopes” list and those without bold are alleles for potential CTL epitope. […] The HLA class II such as HLA-DRB1 has yet to be fully classified into supertypes, and therefore the 4-digit resolution nomenclatures for the HLA-DRB1 alleles are shown.
The threshold for positive IFNγ and IL2 ELISpot responses is ≥50 spot-forming units (SFU) per 10^6 PBMC. The threshold for CFSE-based CD4^+ and CD8^+ T-cell proliferation is ≥2% CD4^+ T-cell CFSE^low or CD8^+ T-cell CFSE^low. The threshold of FACS-based intracellular cytokine staining (ICS) is ≥0.2%. […] The nine FIV peptides in black were used in the current MAP vaccine trial, whereas the 13 peptides in blue were not used. […] The MAPs and their corresponding peptide(s) were also tested for their ability to enhance or suppress in vitro FIV infection of feline PBMC (E/S of peptides and E/S of MAP).
The counterpart HIV-1 peptides of the FIV peptides were also tested for immunogenicity using PBMC and T cells from HIV^+ human subjects. […] The HRT7-1 and HRT7-2 were also tested with cells from HIV^+ subjects on ART. The threshold for positive IFNγ ELISpot response is ≥75 spot-forming units (SFU) per 10^6 PBMC. The threshold for CFSE-based CD4^+ (CD4^+ T) and CD8^+ (CD8^+ T) T-cell proliferation is ≥2% CD4^+ T-cell CFSE^low or CD8^+ T-cell CFSE^low. The threshold of intracellular cytokine staining (ICS) of FACS-based cytolysin (perforin) and cytotoxins (granzymes A and B) in CD4^+ T cells (CyCD4) and CD8^+ T cells (CyCD8) is ≥0.2%. […] The nine HIV-1 peptides in black are the counterpart FIV peptides used in the current MAP vaccine trial, whereas the 13 peptides in blue were not.

Row | Compound | Cyto: CD8+ T-cell cytotoxins (perforin, GrzA & B), frequency of responders | Cyto (cytolysin/cytotoxin production), frequency of responders
1 | CC[C@H](C)[C@H](NC(=O)[C@H](CCCNC(=N)N)NC(=O)[C@H](CC(C)C)NC(=O)[C@H](CO)NC(=O)[C@H](CCC(=O)O)NC(=O)[C@H](CCC(N)=O)NC(=O)[C@H](CCC(N)=O)NC(=O)[C@H](CCSC)NC(=O)[C@H](Cc1ccc(O)cc1)NC(=O)[C@H](CC(C)C)NC(=O)[C@H](CCC(=O)O)NC(=O)[C@@H](N)Cc1ccc(O)cc1)C(=O)N[C@@H](CCC(N)=O)C(=O)N[C@@H](CC(=O)O)C(=O)N[C@@H](CCCNC(=N)N)C(=O)O [FIN7-1] (H-YELYMQQESLRIQDR-OH; N-terminus and C-terminus assumed) | ++ (26%-40% (++)) | ++ (25.1%-40% (++))
2 | CC[C@H](C)[C@H](N)C(=O)N[C@@H](CC(=O)O)C(=O)N[C@@H](Cc1ccccc1)C(=O)N[C@@H](CCCNC(=N)N)C(=O)N[C@H](C(=O)N[C@@H](CC(C)C)C(=O)N[C@@H](CC(N)=O)C(=O)N[C@@H](CCCCN)C(=O)N[C@@H](CC(C)C)C(=O)N[C@H](C(=O)N[C@@H](CC(=O)O)C(=O)N[C@@H](CCCCN)C(=O)NCC(=O)N[C@@H](C)C(=O)O)[C@@H](C)O)C(C)C [FRT3-5] (H-IDFRVLNKLTDKGA-OH; N-terminus and C-terminus assumed) | +++ (41%-54% (+++)) | 
3 | CC(C)C[C@H](NC(=O)[C@@H](NC(=O)[C@H](Cc1c[nH]c2ccccc12)NC(=O)CNC(=O)[C@H](CCC(N)=O)NC(=O)[C@@H]1CCCN1C(=O)[C@H](CC(C)C)NC(=O)[C@H](CO)NC(=O)[C@H](CS)NC(=O)[C@H](Cc1c[nH]c2ccccc12)NC(=O)[C@@H](NC(=O)[C@H](Cc1ccc(O)cc1)NC(=O)[C@H](CCCNC(=N)N)NC(=O)[C@H](CCCNC(=N)N)NC(=O)CN)C(C)C)C(C)C)C(=O)O [FRT7-1] (H-GRRYVWCSLPQGWVL-OH) | +++ (41%-54% (+++)) | +++ (40.1%-54% (+++))
4 | CC[C@H](C)[C@H](NC(=O)[C@H](CC(C)C)NC(=O)[C@@H]1CCCN1C(=O)[C@H](CO)NC(=O)[C@H](CC(C)C)NC(=O)[C@@H](NC(=O)[C@H](Cc1c[nH]c2ccccc12)NC(=O)CNC(=O)[C@H](CCC(N)=O)NC(=O)[C@@H]1CCCN1C(=O)[C@H](CC(C)C)NC(=O)[C@H](CO)NC(=O)[C@@H](N)CS)C(C)C)C(=O)N[C@@H](Cc1ccc(O)cc1)C(=O)O [FRT7-2] (H-CSLPQGWVLSPLIY-OH) | ++++ (>54% (++++)) | ++++ (>54% (++++))
5 | CSCC[C@H](NC(=O)[C@H](CCCNC(=N)N)NC(=O)[C@H](C)NC(=O)[C@@H]1CCCN1C(=O)[C@H](C)NC(=O)[C@@H](N)Cc1ccccc1)C(=O)N[C@@H](CCC(N)=O)C(=O)N[C@@H](CS)C(=O)N[C@@H](CCCNC(=N)N)C(=O)N[C@@H](C)C(=O)N[C@@H](Cc1c[nH]c2ccccc12)C(=O)N[C@@H](Cc1ccc(O)cc1)C(=O)N[C@@H](CC(C)C)C(=O)N[C@@H](CCC(=O)O)C(=O)N[C@@H](C)C(=O)O [Fp9-3] (H-FAPARMQCRAWYLEA-OH) | +++ (41%-54% (+++)) | +++ (40.1%-54% (+++))
6 | CC(C)C[C@H](NC(=O)[C@H](Cc1ccc(O)cc1)NC(=O)[C@H](CC(C)C)NC(=O)[C@H](CCCCN)NC(=O)[C@@H](NC(=O)[C@H](CCC(=O)O)NC(=O)[C@H](C)NC(=O)[C@@H](NC(=O)[C@H](CC(N)=O)NC(=O)[C@H](CCC(N)=O)NC(=O)[C@H](CCC(=O)O)NC(=O)[C@H](CCC(N)=O)NC(=O)[C@@H](N)CC(=O)O)[C@@H](C)O)C(C)C)C(=O)N[C@@H](CCCCN)C(=O)O [Fp14-1] (H-DQEQNTAEVKLYLK-OH) | +++ (41%-54% (+++)) | +++ (40.1%-54% (+++))
